Literature values as cited in patent US8383645B2 (Teva Pharmaceutical Industries, Ltd., priority 2006, dated 2013).

System: acute experimental autoimmune encephalomyelitis (aEAE) model
Settings: U.S. Pat. No. 6,077,851

Structure (SMILES): CCN(C(=O)c1c(O)c2c(Cl)cccc2n(C)c1=O)c1ccccc1 [Laquinimod, N-ethyl-N-phenyl-1,2-dihydro-4-hydroxy-5-chloro-1-methyl-2-oxoquinoline-3-carboxamide]
- effectiveness in the aEAE model: effective
